In brackets after ≈: the same amount, converted by molar mass. Activity calls are given as the source filed them.

From ChEMBL document CHEMBL1212815, “Quinolines and structurally related heterocycles as antimalarials” (Eur J Med Chem, 2010) come the findings set out here.

The test system of data set [1] is Plasmodium falciparum. The experiment in a line: Antimalarial activity against chloroquine-resistant Plasmodium falciparum. Type of data set: functional, organism-based.
Data set [2] relates to Plasmodium falciparum. As to the kind of experiment: Antimalarial activity against Plasmodium falciparum. Type of data set: functional, organism-based.
Data set [3] concerns Plasmodium falciparum. The experiment in a line: Antimalarial activity against chloroquine-sensitive Plasmodium falciparum. Type of data set: functional, organism-based.
Data set [4] relates to Plasmodium berghei. As to the kind of experiment: Antiplasmodial activity against Plasmodium berghei infected in perorally dosed mice (Mus musculus). Type of data set: functional, organism-based.
Data set [5] is described as follows: Toxicity in mouse assessed as maximum tolerated dose. Type of data set: organism-based. The following applies: in vivo, read-out: Activity.
The target in the next data set is Plasmepsin II (Plasmodium falciparum, UniProt P46925). The experiment in a line: Inhibition of Plasmodium falciparum plasmepsin-2.
Sequence of Plasmepsin II (P46925 whole entry): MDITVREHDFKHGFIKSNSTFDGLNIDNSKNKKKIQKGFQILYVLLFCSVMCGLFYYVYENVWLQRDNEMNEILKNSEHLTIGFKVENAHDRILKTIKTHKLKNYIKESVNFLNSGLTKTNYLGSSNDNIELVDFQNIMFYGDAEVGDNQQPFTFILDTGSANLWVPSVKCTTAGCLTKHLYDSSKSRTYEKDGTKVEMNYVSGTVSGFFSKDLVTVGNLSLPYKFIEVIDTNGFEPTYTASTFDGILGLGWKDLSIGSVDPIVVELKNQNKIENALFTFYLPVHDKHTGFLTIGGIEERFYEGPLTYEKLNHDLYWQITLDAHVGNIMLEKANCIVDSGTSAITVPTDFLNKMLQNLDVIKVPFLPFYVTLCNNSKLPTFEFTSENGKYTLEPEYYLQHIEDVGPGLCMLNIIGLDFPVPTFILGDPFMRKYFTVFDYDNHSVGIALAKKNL
Data set [6] deals with Plasmodium falciparum. The experiment in a line: Antimalarial activity against chloroquine-resistant Plasmodium falciparum K1. Type of data set: functional, organism-based.
Data set [7] is described as follows: Inhibition of Plasmodium falciparum DHFR.
Data set [8] deals with Plasmodium falciparum. The experiment in a line: Antimalarial activity against Plasmodium falciparum FAC8. Type of data set: functional, organism-based.
Data set [9] has as its system Plasmodium falciparum. As to the kind of experiment: Antimalarial activity against chloroquine-resistant Plasmodium falciparum W2. Type of data set: functional, organism-based.
Data set [10] deals with Plasmodium falciparum. The experiment in a line: Selectivity index, ratio of IC50 for Plasmodium falciparum D6 to IC50 for Plasmodium falciparum W2. Type of data set: functional.
Data set [11] relates to Plasmodium berghei. The experiment in a line: Antiplasmodial activity against Plasmodium berghei infected in mice (Mus musculus) assessed as suppression of parasitaemia at 100 mg/kg, po. Type of data set: functional.
Data set [12] is described as follows: Inhibition of Plasmodium falciparum protein farnesyltransferase.
The test system of data set [13] is Plasmodium falciparum. As to the kind of experiment: Antimalarial activity against chloroquine-resistant Plasmodium falciparum 3D7. The following applies: read-out: ED50 (the source's name). Type of data set: functional, organism-based.
Data set [14] can be described thus: Inhibition of Plasmodium falciparum falcipain-2.
For a further data set, the system named is Plasmodium chabaudi. The experiment in a line: Antiplasmodial activity against Plasmodium chabaudi infected in mice (Mus musculus) assessed as reduction in parasitaemia measured at 50 mg/kg, perorally daily for 4 days. Type of data set: functional, organism-based. The arrangement: dose 50 mg/kg.
Data set [15] is described as follows: Dissociation constant, pKa of the compound. Type of data set: physicochemical.
Data set [16] relates to Plasmodium falciparum. The experiment in a line: Antimalarial activity against chloroquine-resistant Plasmodium falciparum HB3. Type of data set: functional, organism-based.
In data set [17] the test system is Plasmodium falciparum. The experiment in a line: Antimalarial activity against chloroquine-resistant Plasmodium falciparum Dd2. Type of data set: functional, organism-based.
The subject of data set [18] is Plasmodium falciparum. The experiment in a line: Antimalarial activity against chloroquine-resistant Plasmodium falciparum FcB1. Particulars: FcB1/Columbia. Type of data set: functional, organism-based.
The subject of a further data set is Plasmodium vinckei. The experiment in a line: Antiplasmodial activity against Plasmodium vinckei infected in mice (Mus musculus) assessed as reduction in parasitemia measured per day for 4 days. Type of data set: functional. The following applies: 96 h.
The test system of data set [19] is Plasmodium falciparum. The experiment in a line: Antimalarial activity against chloroquine-resistant Plasmodium falciparum D10. Type of data set: functional, organism-based.

As for `Clc1ccc2c(NC[C@H]3CCN4CCCC[C@@H]4C3)ccnc2c1`, the IC50 – broadly, the concentration needed to halve the response being measured – in the data set with Plasmodium falciparum [1] worked out at 21 nM.
Still for that read-out and setting: next, `O=C1CCSC(c2ccc(Cl)cc2)N1CCCNc1ccnc2cc(Cl)ccc12` (stereo not given): 13 nM.
In the case of `CCOC(=O)c1c(CN2CCCCC2)nc2ccc(Cl)cc2c1-c1ccccc1`, the IC50 in the data set on Plasmodium falciparum [2] (Plasmodium falciparum) worked out at 2.56 µg/mL.
`Clc1ccc2c(N3CCNCC3)ccnc2c1`: the IC50 in the data set with Plasmodium falciparum [3] and in the data set on Plasmodium falciparum [1] was 1020 nM in each case.
`Clc1ccc2c(NCCNCC3CCC4(CC3)OOC3(CCCCC3)OO4)ccnc2c1`: the Activity in the data set on Plasmodium berghei [4] amounted to 80 mg/kg. Also, the MTD in data set [5] is above 960 mg/kg.
`CCCCNC(=O)C[C@H](O)[C@H](CC(C)C)NC(=O)[C@@H](NC(=O)c1ccc(Oc2ccc(C(=O)N[C@@H](CC(C)C)C(=O)N[C@@H](CCCCN)C(=O)NCCCC(C)Nc3cc(OC)cc4cccnc34)cc2)cc1)[C@@H](C)CC` (stereo not given in full) showed an IC50 against Plasmepsin II of 0.59 nM.
Regarding `CCN(CC)Cc1ccc(Nc2ccnc3cc(Cl)ccc23)cc1O` [ISOQUINE], the IC50 in the data set with Plasmodium falciparum [6] was 6.01 nM.
As to `Cc1cc(NC(=O)CN2CCN(C)CC2)c2cc(NC(=O)Nc3cc(Cl)cc(Cl)c3)ccc2n1`, in data set [7], the IC50 was 0.4 ng/mL (≈ 0.000798 µM).
For `Clc1ccc2c(N3CCN(Cc4ccccc4Br)CC3)ccnc2c1`, in the data set with Plasmodium falciparum [1], the IC50 is 11400 nM.
`O=C(CN(CCCNc1ccnc2cc(Cl)ccc12)C(=O)c1ccncc1)NC1CCCCC1` gave an IC50 in the data set with Plasmodium falciparum [1] of 73 nM.
In the data set with Plasmodium berghei [4] (Plasmodium berghei), `CCN(CC)Cc1cc(N)cc(Nc2ccnc3cc(Cl)ccc23)c1` showed an IC50 of 18.1 nM.
In the case of `O=C(NCCNc1ccnc2cc(Cl)ccc12)C1CCC2(CC1)OOC1(CCCCC1)OO2`, in the data set on Plasmodium berghei [4], the Activity turned out to be 80 mg/kg. For the same compound, the MTD in data set [5] was above 960 mg/kg.
Take `CN(CC(O)CNCc1ccc(Cl)c(Cl)c1)S(=O)(=O)c1cccc2cnccc12` (stereo not given): the MIC (usually the smallest concentration in the dilution series that meets the test's criterion for growth inhibition) in the data set with Plasmodium falciparum [2] (Plasmodium falciparum) is 2 µg/mL (≈ 4.4 µM).
On to `CCN(CC)CCCC(C)Nc1ccnc2c(NC(=O)CCCCC(=O)Nc3cccc4c(NC(C)CCCN(CC)CC)ccnc34)cccc12` (stereo not given), for which, in the data set with Plasmodium falciparum [8], the IC50 turned out to be 120 nM.
In the data set on Plasmodium falciparum [1], `O=C1CSC(c2c(Cl)cccc2Cl)N1CCNc1ccnc2cc(Cl)ccc12` (stereo not given) showed a 50% inhibitory concentration (IC50) of 13 nM.
`CCOC(=O)c1c(C)nc2ccc(Cl)cc2c1-c1ccccc1` returned an IC50 in the data set on Plasmodium falciparum [2] (Plasmodium falciparum) of 4.47 µg/mL.
Take `Clc1ccc2c(N[C@H]3CCN4CCCC[C@@H]4C3)ccnc2c1`: the IC50 with Plasmodium falciparum [9] was found to be 23.3 nM; in the data set on Plasmodium falciparum [1], 21 nM.
Regarding `CN1CC2CCC1C(CNc1ccnc3cc(Cl)ccc13)C2` (stereo not given), in the data set on Plasmodium falciparum [10], the “Ratio IC50” value is reported as above 1200.
The compound `Clc1ccc2c(N3CCN(CCCN4CCN(c5ccnc6cc(Cl)ccc56)CC4)CC3)ccnc2c1` [PIPERAQUINE] gave a half-maximal inhibitory concentration (IC50) in the data set on Plasmodium falciparum [3] of 36 nM.
With `COc1cc(NC(C)CCCN)c2nc(C(C)(C)C)ccc2c1` (stereo not given), in the data set with Plasmodium berghei [11], the Activity turned out to be 100%.
For the compound `N=C(N)c1ccc(OCCCCCOc2ccc(C(=N)N)cc2)cc1` [PENTAMIDINE], in the data set with Plasmodium falciparum [2] (Plasmodium falciparum), half-maximal inhibition (IC50) required 2.9 µg/mL and the 90% effect level (IC90) was put at 6.5 µg/mL (≈ 19.1 µM).
For `OC1(C(F)(F)F)CC(c2ccccc2)=NN1c1ccnc2cc(Cl)ccc12` (stereo not given), in the data set with Plasmodium berghei [4] (Plasmodium berghei), it took 1.06 µg/mL to reach half-maximal inhibition (IC50).
The compound `COc1cc2cc(/C=C/C(=O)c3ccc(Cl)cc3Cl)c(Cl)nc2cc1OC` showed an IC50 in the data set with Plasmodium falciparum [2] (Plasmodium falciparum) of 19 µM.
On to `CCC(=O)CCCCC[C@@H]1NC(=O)[C@H]2CCCCN2C(=O)[C@H]([C@H](C)CC)NC(=O)[C@H](c2c[nH]c3ccccc3c2=O)NC1=O`, for which the IC50 with Plasmodium falciparum [3] and with Plasmodium falciparum [1] was 0.04 µg/mL throughout.
Compound `Cn1cnc(S(=O)(=O)N(Cc2ccccc2)C2Cc3cc(C#N)ccc3N(Cc3cncn3C)C2)c1` (stereo not given) registered an IC50 in data set [12] of 0.6 nM. Moreover, in the data set on Plasmodium falciparum [13], the EC50 is 5 nM.
`CC1(C(=O)NC2CCCCC2)CCCC(=O)N1CCCCCCNc1ccnc2cc(Cl)ccc12` (stereo not given) yielded an IC50 in data set [14] of 17.7 µM.
For `Clc1ccc2c(NCCC[C@H]3CCN4CCCC[C@@H]4C3)ccnc2c1`, the IC50 in the data set with Plasmodium falciparum [1] amounted to 21 nM.
`Clc1ccc2c(NCC[C@H]3CCN4CCCC[C@@H]4C3)ccnc2c1` came in with an IC50 with Plasmodium falciparum [1] of 21 nM.
Turning to `Clc1cccc(C(Nc2ccnc3cc(Cl)ccc23)c2ccc(CN3CCCC3)cc2)c1` (stereo not given), in the data set on Plasmodium chabaudi, the outcome was Active.
Turning to `CC(C)(C)NCc1cc(Nc2ccnc3cc(Cl)ccc23)ccc1F`, the ED50 (usually the dose that gives a 50% effect, or the effect in half of the subjects) in the data set on Plasmodium berghei [4] (Plasmodium berghei) was 5.3 mg/kg.
Take `Cc1cc(NC(=O)c2ccco2)c2cc(NC(=O)Nc3cccc(C#N)c3)ccc2n1`: the IC50 in data set [7] is 0.4 ng/mL (≈ 0.000972 µM).
In turn, `OC1(C(F)(F)F)CC(c2ccc(Cl)cc2)=NN1c1ccnc2cc(Cl)ccc12` (stereo not given) returned an IC50 in the data set with Plasmodium berghei [4] (Plasmodium berghei) of 1.39 µg/mL.
In the data set with Plasmodium berghei [4] (Plasmodium berghei), `OC1(C(F)(F)F)CC(c2ccc(Br)cc2)=NN1c1ccnc2cc(Cl)ccc12` (stereo not given) displayed an IC50 of 1.39 µg/mL.
Regarding `COc1cc2cc(/C=C3\CCc4c(OC)cccc4C3=O)c(Cl)nc2cc1OC`, the “inhibition (INH)” value with Plasmodium falciparum [2] came out at 50%.
As to `C1CC2CCC1CN2` [ISOQUINUCLIDINE], the pKa (as a rule, the pH at which an ionisable group is half protonated) in data set [15] came out at 11.
Turning to `CCN(CCNc1ccnc2cc(Cl)ccc12)CCNS(=O)(=O)c1ccc2c(N(C)C)cccc2c1`, the results for the IC50 with Plasmodium falciparum [16] and with Plasmodium falciparum [17] were 17.5 nM and 22.7 nM, respectively.
On to `O=C1c2ccccc2SCN1CCNc1ccnc2cc(Cl)ccc12`, for which inhibition in the data set with Plasmodium falciparum [1] was half-maximal at 13 nM (IC50).
As for `CC(C)C1=C[C@H]2OC3(CCC(NCCNc4ccnc5cc(Cl)ccc45)CC3)OO[C@@]2(C)CC1.O=C(O)CC(O)(CC(=O)O)C(=O)O` (stereo not given in full), the IC50 in the data set with Plasmodium falciparum [18] came out at 15 nM. Besides, the ED50 in the data set with Plasmodium vinckei was 5 mg/kg.
`CN(C)CCCN(CCCN(C)C)CCCN1c2ccccc2Sc2ccc(Cl)cc21` registered an IC50 in the data set on Plasmodium falciparum [19] of 120 nM.
In the case of `CCCCCOc1c(OC)cc(NC(C)CCCN)c2nccc(CC)c12` (stereo not given), the IC50 in the data set on Plasmodium falciparum [3] is 0.0094 µg/mL; in the data set on Plasmodium falciparum [1], 0.0097 µg/mL.
